Experimental data reported in ChEMBL document CHEMBL1157116, “Synthesis of novel benzocoumarin derivatives as lipid lowering agents” (2010).

Columns and labels:
Type in all cases: functional
Set-up in all cases: scale not given: the % may be the effect or the level left
[1] = Antioxidant activity assessed as inhibition microsomal lipid peroxidation assessed as malondialdehyde formation at 20 ug/ml by thiobarbituric acid test; details: Microsome
Rattus norvegicus [2] = experiment: Antihyperlipidemic activity in Charles Foster rat assessed as reduction of triton WR-1339-induced plasma post heparin lipolytic activity at 100 mg/kg, po after 18 hrs by spectrophotometric analysis
Rattus norvegicus [3] = experiment: Antihyperlipidemic activity in Charles Foster rat assessed as reduction of triton WR-1339-induced plasma triglyceride level at 100 mg/kg, po after 18 hrs by spectrophotometric analysis
Rattus norvegicus [4] = experiment: Antihyperlipidemic activity in Charles Foster rat assessed as reduction of triton WR-1339-induced plasma phospholipid level at 100 mg/kg, po after 18 hrs by spectrophotometric analysis
Rattus norvegicus [5] = experiment: Antihyperlipidemic activity in Charles Foster rat assessed as reduction of triton WR-1339-induced plasma total cholesterol level at 100 mg/kg, po after 18 hrs by spectrophotometric analysis
[6] = Antioxidant activity assessed as inhibition of xanthine-xanthine oxidase generated superoxide anion radical production assessed as formazone formation at 20 ug/ml after 30 mins by spectrophotometric analysis
Rattus norvegicus [7] = experiment: Antihyperlipidemic activity in Charles Foster rat assessed as reduction of triton WR-1339-induced plasma total cholesterol level at 25 mg/kg, po after 18 hrs by spectrophotometric analysis
[8] = Antioxidant activity assessed as inhibition microsomal lipid peroxidation assessed as malondialdehyde formation at 100 ug/ml by thiobarbituric acid test; details: Microsome
Rattus norvegicus [9] = experiment: Antihyperlipidemic activity in Charles Foster rat assessed as reduction of triton WR-1339-induced plasma phospholipid level at 25 mg/kg, po after 18 hrs by spectrophotometric analysis
[10] = Antioxidant activity assessed as inhibition non-enzymatic reactants generated hydroxyl radical production at 100 ug/ml after 90 mins by spectrophotometry
Rattus norvegicus [11] = experiment: Antihyperlipidemic activity in Charles Foster rat assessed as reduction of triton WR-1339-induced plasma triglyceride level at 25 mg/kg, po after 18 hrs by spectrophotometric analysis
[12] = Antioxidant activity assessed as inhibition of xanthine-xanthine oxidase generated superoxide anion radical production assessed as formazone formation at 100 ug/ml after 30 mins by spectrophotometric analysis
[13] = Antioxidant activity assessed as inhibition non-enzymatic reactants generated hydroxyl radical production at 20 ug/ml after 90 mins by spectrophotometry

For Cc1c(C)c2c(c(C)c1O)CC[C@@](C)(CCC[C@H](C)CCC[C@H](C)CCCC(C)C)O2, the Activity [1] was 45%.
In the case of Cc1ccc(C)c(OCCCC(C)(C)C(=O)O)c1 [GEMFIBROZIL], the Activity (Rattus norvegicus [2]) is reported as 24%, the Activity (Rattus norvegicus [3]) is reported as 31% and the Activity (Rattus norvegicus [4]) is reported as 35%. The Activity (Rattus norvegicus [5]) was 36%.
Oc1ncnc2[nH]ncc12 showed an Activity [6] of 86%.
Cc1cc(=O)oc2c1ccc1c(OCc3ccccc3)cccc12 showed an Activity (Rattus norvegicus [7]) of 26%, an Activity [8] of 38% and an Activity (Rattus norvegicus [2]) of 18%. For the same compound, the Activity (Rattus norvegicus [9]) was 24%, the Activity (Rattus norvegicus [3]) was 28% and the Activity (Rattus norvegicus [4]) was 29%. The Activity [10] was 41%, the Activity (Rattus norvegicus [11]) was 23% and the Activity [12] was 40%. The Activity (Rattus norvegicus [5]) was 28%.
In the case of OC[C@@H](O)[C@@H](O)[C@H](O)[C@H](O)CO, the Activity [13] is reported as 48%.
Compound CCOC(=O)COc1cccc2c1ccc1c(C)cc(=O)oc12 has an Activity [8] of 37%, an Activity [10] of 38% and an Activity [12] of 28%.
With Cc1cc(=O)oc2c1ccc1c(OC(C)c3ccccc3)cccc12 (stereo not drawn) the Activity (Rattus norvegicus [3]) was 22%, the Activity (Rattus norvegicus [4]) was 26% and the Activity (Rattus norvegicus [5]) was 23%.
